IC50 data for 34 compounds are collected here from US7705029B2 (Synta Pharmaceuticals Corp., priority 2004, dated 2010).

One assay has as its system IL-2 production in a Human Jurkat Cell Line. Briefly: Inhibition of IL-2 production in PHA-stimulated Jurkat cells (IL-2 ELISA). The assay is classed as cell-based. Particulars: Homo sapiens, Jurkat, 20 h, read-out: IC50 (concentration at which IL-2 release is inhibited by 50%). How it is done: Jurkat cells (ATCC, Cat# TIB-152) were grown in RPMI1640 medium (ATCC, Cat# 30-2001) containing 10% of FBS (ATCC, Cat# 30-2020). For compound screening, Jurkat cells were plated in 96-well plates at a density of 0.5 million cells per well in RPMI1640 medium containing 1% of FBS. Then, various concentrations of each test compound were added to the cell plates followed by addition of PHA (Sigma, Cat# L-9017) at a final concentration of 2.5 μg/ml to stimulate IL-2 production. Cells were then incubated at 37° C. (+5% CO2) for 20 hours before ELISA assay. After 20 hours incubation, cell plates were centrifuged at 500-800 g for 5 minutes and the supernatants was collected for IL-2 detection using the human IL-2 ELISA kit purchased from Cell Sciences (Cat# 851.500.020). The ELISA assay for IL-2 production was done in 96-well plates using a protocol provided by Cell Sciences.
The IC50 (i.e., the concentration at which IL-2 release is inhibited by 50%) was determined and the results are shown in the Table. […] The designation “A” means an IC50 less than 0.010 μM; the designation B means an IC50 between 0.010 and 1.0 μM; and the designation “C” mean an IC50 greater than 1 μM.
As for `N#CC(=Cc1ccc(-n2ccc(C(F)(F)F)n2)cc1)c1cc(F)ccc1F` [Compound 42, 2-(2,5-Difluoro-phenyl)-3-[4-(3-trifluoromethyl-pyrazol-1-yl)-phenyl]-acrylonitrile], the IC50 was over 1000 nM.

On to `N#CC(=Cc1ccc(-n2nc(C(F)(F)F)cc2C(F)(F)F)cc1)c1cc(F)c(F)c(F)c1` [Compound 10, 3-[4-(3,5-Bis-trifluoromethyl-pyrazol-1-yl)-phenyl]-2-(3,4,5-trifluoro-phenyl)-acrylonitrile], for which the IC50 fell in the range of 10 to 1000 nM.

In the case of `N#CC(=Cc1ccc(-n2nc(C(F)(F)F)cc2C(F)(F)F)cc1)c1ccc(F)c(F)c1F` [Compound 8, 3-[4-(3,5-Bis-trifluoromethyl-pyrazol-1-yl)-phenyl]-2-(2,3,4-trifluoro-phenyl)-acrylonitrile], the IC50 lay within 10 to 1000 nM.

As to `N#CC(=Cc1ccc(-n2cccn2)cc1)C(=O)c1ccccc1` [Compound 30, 2-Benzoyl-3-(4-pyrazol-1-yl-phenyl)-acrylonitrile], the IC50 is over 1000 nM.

Regarding `Cc1cc(C(F)(F)F)n(-c2ccc(/C=C(\C#N)c3cc(F)ccc3F)cc2)n1` [Compound 15, 2-(2,5-Difluoro-phenyl)-3-[4-(3-methyl-5-trifluoromethyl-pyrazol-1-yl)-phenyl]-acrylonitrile], the IC50 lay within 10 to 1000 nM.

Regarding `Cc1cc(C(F)(F)F)n(-c2ccc(C=C(C#N)c3ccc(F)c(F)c3)cc2)n1` [Compound 21, 2-(3,4-Difluoro-phenyl)-3-[4-(3-methyl-5-trifluoromethyl-pyrazol-1-yl)-phenyl]-acrylonitrile], the IC50 lay in the range of 10 to 1000 nM.

Consider `N#CC(=Cc1ccc(-n2ccc(C(F)(F)F)n2)cc1)C(=O)c1cc(F)ccc1F` [Compound 41, 2-(2,5-Difluoro-benzoyl)-3-[4-(3-trifluoromethyl-pyrazol-1-yl)-phenyl]-acrylonitrile], for which the IC50 was over 1000 nM.

With `Cc1cc(C(F)(F)F)n(-c2ccc(C=C(C#N)c3cccc(F)c3F)cc2)n1` [Compound 18, 2-(2,3-Difluoro-phenyl)-3-[4-(3-methyl-5-trifluoromethyl-pyrazol-1-yl)-phenyl]-acrylonitrile], the IC50 is 10 to 1000 nM.

Consider `N#CC(=Cc1ccc(-n2nc(C(F)(F)F)cc2C(F)(F)F)cc1)c1c(F)ccc(F)c1F` [Compound 9, 3-[4-(3,5-Bis-trifluoromethyl-pyrazol-1-yl)-phenyl]-2-(2,3,6-trifluoro-phenyl)-acrylonitrile], for which the IC50 was under 10 nM.

For `Cc1cc(C(F)(F)F)n(-c2ccc(C=C(C#N)c3cc(F)cc(F)c3)cc2)n1` [Compound 22, 2-(3,5-Difluoro-phenyl)-3-[4-(3-methyl-5-trifluoromethyl-pyrazol-1-yl)-phenyl]-acrylonitrile], the IC50 lay within 10 to 1000 nM.

`N#CC(=Cc1ccc(-n2cccn2)cc1)c1ccccc1F` [Compound 48, 2-(2-Fluoro-phenyl)-3-(4-pyrazol-1-yl-phenyl)-acrylonitrile]: the IC50 is over 1000 nM.

For `N#CC(=Cc1cccc(-n2nc(C(F)(F)F)cc2C(F)(F)F)c1)c1cc(F)ccc1F` [Compound 44, 3-[3-(3,5-Bis-trifluoromethyl-pyrazol-1-yl)-phenyl]-2-(2,5-difluoro-phenyl)-acrylonitrile], the IC50 is over 1000 nM.

`N#CC(=Cc1ccc(-n2nc(C(F)(F)F)cc2C(F)(F)F)cc1)c1cc(F)c(F)cc1F` [Compound 12, 3-[4-(3,5-Bis-trifluoromethyl-pyrazol-1-yl)-phenyl]-2-(3,4,6-trifluoro-phenyl)-acrylonitrile]: the IC50 fell in the range of 10 to 1000 nM.

As to `N#CC(=Cc1ccc(-n2cccn2)cc1)c1ccccc1` [Compound 23, 2-Phenyl-3-(4-pyrazol-1-yl-phenyl)-acrylonitrile], the IC50 is over 1000 nM.

`N#CC(=Cc1ccc(-n2nc(C(F)(F)F)cc2C(F)(F)F)cc1)C(=O)c1ccco1` [Compound 33, 3-[4-(3,5-Bis-trifluoromethyl-pyrazol-1-yl)-phenyl]-2-(furan-2-carbonyl)-acrylonitrile]: the IC50 was over 1000 nM.

On to `N#C/C(=C\c1ccc(-n2nc(C(F)(F)F)cc2OC(F)F)cc1)c1cccc(F)c1F` [Compound 1], for which the IC50 is 10 to 1000 nM.

In the case of `N#CC(=Cc1ccc(-n2c(C(F)(F)F)nc3ccccc32)cc1)c1cccc(F)c1F` [Compound 45, 2-(2,3-Difluoro-phenyl)-3-[4-(2-trifluoromethyl-benzoimidazol-1-yl)-phenyl]-acrylonitrile], the IC50 lay within 10 to 1000 nM.

Regarding `N#CC(=Cc1ccc(-n2nc(C(F)(F)F)cc2C(F)(F)F)cc1)C(=O)c1ccc(F)cc1F` [Compound 34, 3-[4-(3,5-Bis-trifluoromethyl-pyrazol-1-yl)-phenyl]-2-(2,4-difluoro-benzoyl)-acrylonitrile], the IC50 was over 1000 nM.

With `N#CC(=Cc1ccc(-n2c(C(F)(F)F)nc3ccccc32)cc1)c1cc(F)ccc1F` [Compound 46, 2-(2,5-Difluoro-phenyl)-3-[4-(2-trifluoromethyl-benzoimidazol-1-yl)-phenyl]-acrylonitrile], the IC50 lay in the range of 10 to 1000 nM.

As for `N#C/C(=C\c1ccc(-n2nc(C(F)(F)F)cc2C(F)(F)F)cc1)C(=O)c1cccc(F)c1F` [Compound 25, 3-[4-(3,5-Bis-trifluoromethyI-pyrazol-1-yl)-phenyl]-2-(2,3-difluoro-benzoyl)-acrylonitrile], the IC50 was over 1000 nM.

In the case of `Cc1cc(C(F)(F)F)n(-c2ccc(C=C(C#N)c3c(F)cccc3F)cc2)n1` [Compound 20, 2-(2,6-Difluoro-phenyl)-3-[4-(3-methyl-5-trifluoromethyl-pyrazol-1-yl)-phenyl]-acrylonitrile], the IC50 fell in the range of 10 to 1000 nM.

`N#CC(=Cc1ccc(-n2ccc(-c3ccccc3)n2)cc1)C(=O)c1ccco1` [Compound 31, 2-(Furan-2-carbonyl)-3-[4-(3-phenyl-pyrazol-1-yl)-phenyl]-acrylonitrile]: the IC50 is over 1000 nM.

As for `N#CC(=Cc1ccc(-n2nc(C(F)(F)F)cc2OC(F)F)cc1)c1cc(F)ccc1F` [Compound 3, 3-[4-(5-Difluoromethoxy-3-trifluoromethyl-pyrazol-1-yl)-phenyl]-2-(2,5-difluoro-phenyl)-acrylonitrile], the IC50 was 10 to 1000 nM.

Turning to `Cc1cc(C(F)(F)F)n(-c2ccc(C=C(C#N)C(=O)c3ccc(F)cc3F)cc2)n1` [Compound 39, 2-(2,4-Difluoro-benzoyl)-3-[4-(3-methyl-5-trifluoromethyl-pyrazol-1-yl)-phenyl]-acrylonitrile], the IC50 is over 1000 nM.

For `N#CC(=Cc1cccc(-n2nc(C(F)(F)F)cc2C(F)(F)F)c1)c1cccc(F)c1F` [Compound 43, 3-[3-(3,5-Bis-trifluoromethyl-pyrazol-1-yl)-phenyl]-2-(2,3-difluoro-phenyl)-acrylonitrile], the IC50 was over 1000 nM.

On to `N#CC(=Cc1ccc(-n2nc(C(F)(F)F)cc2C(F)(F)F)cc1)c1cc(F)ccc1F` [Compound 5, 3-[4-(3,5-Bis-trifluoromethyl-pyrazol-1-yl)-phenyl]-2-(2,5-difluoro-phenyl)-acrylonitrile], for which the IC50 was under 10 nM.

`N#CC(=Cc1ccc(-n2nc(C(F)(F)F)cc2OC(F)F)cc1)c1ccccc1F` [Compound 2, 3-[4-(5-Difluoromethoxy-3-trifluoromethyl-pyrazol-1-yl)-phenyl]-2-(2-fluoro-phenyl)-acrylonitrile]: the IC50 was 10 to 1000 nM.

As for `N#CC(=Cc1ccc(-n2ccc(-c3cccs3)n2)cc1)C(=O)c1ccccc1` [Compound 28, 2-Benzoyl-3-[4-(3-thiophen-2-yl-pyrazol-1-yl)-phenyl]-acrylonitrile], the IC50 is over 1000 nM.

Turning to `N#CC(=Cc1ccc(-n2cccn2)cc1)c1cc(F)ccc1F` [Compound 24, 2-(2,5-Difluoro-phenyl)-3-(4-pyrazol-1-yl-phenyl)-acrylonitrile], the IC50 is over 1000 nM.

Turning to `N#C/C(=C\c1ccc(-n2nc(C(F)(F)F)cc2C(F)(F)F)cc1)c1cccc(F)c1F` [Compound 4, 3-[4-(3,5-Bis-trifluoromethyl-pyrazol-1-yl)-phenyl]-2-(2,3-difluoro-phenyl)-acrylonitrile], the IC50 was under 10 nM.

For the compound `Cc1ccn(-c2ccc(C=C(C#N)C(=O)c3ccco3)cc2)n1` [Compound 29, 2-(Furan-2-carbonyl)-3-[4-(3-methyl-pyrazol-1-yl)-phenyl]-acrylonitrile], the IC50 is over 1000 nM.

`Cc1cc(C(F)(F)F)n(-c2ccc(C=C(C#N)C(=O)c3cc(F)ccc3F)cc2)n1` [Compound 40, 2-(2,5-Difluoro-benzoyl)-3-[4-(3-methyl-5-trifluoromethyl-pyrazol-1-yl)-phenyl]-acrylonitrile]: the IC50 is over 1000 nM.

Staying with this assay, now noted: Jurkat cells, PHA 2.5 μg/ml, 20 hours incubation, human IL-2 ELISA of supernatant; read-out: IC50 (concentration at which IL-2 release is inhibited by 50%).
As for `N#CC(=Cc1ccccc1-n1nc(C(F)(F)F)cc1C(F)(F)F)c1cccc(F)c1F` [Compound 14, 3-[2-(3,5-Bis-trifluoromethyl-pyrazol-1-yl)-phenyl]-2-(2,3-difluoro-phenyl)-acrylonitrile], the IC50 was over 1000 nM.

On to `N#CC(=Cc1ccc(-n2nc(C(F)(F)F)cc2C(F)(F)F)cc1Cl)c1cccc(F)c1F` [Compound 13, 3-[4-(3,5-Bis-trifluoromethyl-pyrazol-1-yl)-2-chloro-phenyl]-2-(2,3-difluoro-phenyl)-acrylonitrile], for which the IC50 was over 1000 nM.
